Numbers after ± are expanded uncertainties.
Settings: Crystal; visual observation

O=C(O)C[C@H](O)C(=O)O [l-hydroxysuccinic acid]
Normal melting temperature: 99.50 ± 1.6 °C
